Assay results taken from US9018196B2, “Development of a new formulation overcoming thymus atrophy with concomitantly enhancement of anti-inflammatory effect of dexamethasone” (Macau University of Science and Technology, priority 2013, dated 2015).

What was measured:
Type in all cases: in vivo, Balb/c mice
[1] = tested on: CD4+CD8+ thymocytes; assay: Flow cytometry assay for detection of CD4 and CD8 expression in thymocytes; conditions: DNFB-induced DTH mice, topical application; control and model groups about 76%
Method: (§1) Male Balb/c mice, weighing 19-21 g were sensitized through topical application of 20 μl of 0.5% (v/v) DNFB in acetone onto the shaved abdomen on days 1 and 2. Challenge was then preformed on day 6 by applying DNFB (20 μl, 0.5%, v/v) on the left inner and outer ear surfaces of mice. DMY (at dosage of 1 mg/ear) and/or DEX (1.5625 μg/ml) dissolved in acetone was topically applied (20 μl) to the ears at 2nd, 24th, 48th, 72nd, hour after the challenge. The edema was calculated as the difference between the thickness of left and right ear at the 24th, 48th and 72nd h after challenge. […] The control 100 group was treated only with DNFB or solvent solution.
The animal model was conducted as mentioned in section 1.1 of Example 1 above, in which after the mice were sacrificed by cervical dislocation, the thymocytes were isolated and washed by PBS. The cells were stained by 20 μL CD4 with CD8 for 30 min avoiding from light, followed by 4% PFA to fix the cells, and flow cytometery was then conducted.

[2] = tested on: thymocytes; assay: Flow cytometry assay for detection of thymocyte apoptosis (Annexin V-FITC and PI); conditions: DNFB-induced DTH mice, model group about 72%
Method: The animal model was conducted as mentioned in section 1.1 of Example 1 above. Thymocytes were washed by cold PBS and binding buffer, resuspended in binding buffer including Annexin V-FITC, and then incubated at room temperature for 10 minutes. After adding the binding buffer containing PI, the cells were incubated on ice for another 15 minutes. The data was analyzed by flow cytometry within one hour.

[3] = tested on: signal-joint TRECs in thymocytes; assay: Quantification of signal-joint TRECs; conditions: compared with the DEX-treated animals
Method: as §1
DNA was isolated from purified thymic T cells using DNA purification kit. PCR was performed using mδRec- and ψJα-specific primers and an mδRec-ψJα fluorescent probe as described previously. The standard curves for murine TRECs were generated using a mδRec-ψJα TREC PCR product cloned into a pc DNA3.1 plasmid from Prof. Gregory D. Sempowski (Duke Human Vaccine Institute, Duke University Medical Center, Durham, N.C., USA.). The assay was performed on slides according to previous study.

[4] = tested on: mononuclear cell infiltrate in the ear; assay: Histological examination of ear inflammation; conditions: DNFB-treated mice, ear histology
Method: as §1
(§2) The animal model was conducted as mentioned in section 1.1 of Example 1 above. […] Antigens were retrieved by steaming samples in DAKO target retrieval buffer (DAKO) for 20 minutes. After the nonspecific binding sites were blocked, the sections were incubated overnight at 4° C. with CD4 or CD8 antibodies (Phoenix Pharmaceuticals).
(§3) Sections were stained with 3,3′-diaminobenzidine substrate and counterstained with Meyer hematoxylin and eosin.

[5] = tested on: thymic architecture; assay: Histological examination of thymus; conditions: compared with DEX-treated animals
Method: as §1

[6] = tested on: CD4+ and CD8+ cells in the ears; assay: Immunohistochemical staining of CD4 and CD8 in ear sections; conditions: immunohistochemical analysis; in comparison with the Model Group
Method: as §1, §2, §3

[7] = tested on: ear edema of DTH mice induced by DNFB; assay: Delay-type hypersensitivity test (DTHT) in mice: ear edema; conditions: topical, DMY 1 mg/ear and/or DEX 1.5625 μg/ml, 24th, 48th, 72nd h after challenge, vs Model Group
Method: as §1
FIGS. 1a and 1b show the effects of DEX, DMY and the combinational application of DMY and DEX (illustrated as the DMY+DEX group) on treatment of ear edema of DTH mice induced by DNFB. Edema as expressed as the increase in ear thickness (ΔT in micrometer±S.E.M.) in the DNFB experiments. Percentages of inhibition (% I) for each measurement were calculated from values for the DEX, DMY and DMY+ DEX groups with respect to those for the Model Group. Statistically significant differences with respect to the Model Group are expressed as *P<0.05 and **P<0.01 (Dunnett's t test).
The animal model was conducted as mentioned in section 1.1 of Example 1 above. […]

| SMILES | CD4+CD8+ T cell population in thymus [1] [%] | ratio of thymocyte apoptosis [2] [%] | levels of signal-joint TRECs in thymocytes [3] | number of inflammatory cells in the ear [4] | thymic architecture (corticomedullary junctions) [5] | accounts of CD4+ and CD8+ cells in the treated ears [6] | effect on ear edema (increase in ear thickness, percentages of inhibition) [7] |
| --- | --- | --- | --- | --- | --- | --- | --- |
| C[C@@H]1C[C@H]2[C@@H]3CCC4=CC(=O)C=C[C@]4(C)[C@@]3(F)[C@@H](O)C[C@]2(C)[C@@]1(O)C(=O)CO [DEX, dexamethasone] | 54.7 | 77.9 | – | – | – | – | – |
| O=C1c2c(O)cc(O)cc2O[C@H](c2cc(O)c(O)c(O)c2)[C@H]1O [DMY, dihydromyricetin] | – | – | could increase the levels of signal-joint TRECs | could be significantly reduced | significantly improve the thymic architecture | shown to reduce the accounts of CD4+ and CD8+ cells | could inhibit ear edema |
